Test results from a melting point compilation (Tetko et al.; mined from patent text by program, amines drawn as free bases though some values may be those of a salt).

With `CCCC(NC(=O)Cc1ccc(C(=O)O)c(OCC)c1)c1ccccc1N1CCCCC1` (stereo not drawn) the melting point was 87 to 89 °C. Compound `O=C(NC(Cc1ccccc1[N+](=O)[O-])c1ccccc1)C1CCCCC1` (stereo not drawn) has a melting point of 210 to 212 °C. For `COc1cc2cc(-c3cc(C)c(O)c(C)c3)[nH]c(=O)c2c(OC)c1CN1CCOCC1`, the melting point was 158 to 161 °C. In the case of `CCc1c(-c2ccccc2)c2c(COCCCN3CCCCC3)cc3c(O)ccc1n32`, the melting point is reported as 93 to 99 °C. Compound `CCOc1nn(-c2ccc(C(F)(F)F)cn2)cc1CCCOc1ccccc1CCC(=O)O` has a melting point of 93 to 94 °C. `O=C1c2ccccc2CN1C1CCNCC1` showed a melting point of 144 to 146 °C. In the case of `CS(=O)(=O)c1ccc(-c2cnn(-c3ccc(F)cc3)c(=O)c2OCCC2CC2)cc1`, the melting point is reported as 111 to 117 °C. Compound `CC=CCn1c(C)c(C)c2cnnc(OCc3ccc(OC(F)F)cc3)c21` has a melting point of 109 to 110 °C. For `COC(=O)NNc1ccccc1OCCSC`, the melting point was 92 to 94 °C. In the case of `CN1CC(O)C(O)C(O)C1CO` (stereo not drawn), the melting point is reported as 142 to 143 °C. For `CC(C)c1ccc(S(=O)(=O)n2c(COC(C)(C)C(=O)O)cc3cc(C(F)(F)F)ccc32)cc1`, the melting point was 132 to 134 °C. `O=C(O)c1ccnc(NC(=O)C(CS)Cc2ccccc2)c1` (stereo not drawn) gave a melting point of 234 to 236 °C. `Cc1ccc2cccc(OCc3cc(N(C)C(=O)CN)ccc3Cl)c2n1` showed a melting point of 82 to 87 °C. Compound `CCOP(=O)(CC(=O)Nc1c(C(C)C)cccc1C(C)C)NCC(c1ccccc1)c1ccccc1` (stereo not drawn) has a melting point of 172 to 176 °C. For `CC1(OC(=O)C=CC2C(C(=O)OC(C#N)c3cccc(Oc4ccccc4)c3)C2(C)C)CCC1` (stereo not drawn), the melting point was 78 °C. With `N#Cc1ccc(C2(Cc3ccccc3)C(=O)N(CC3CC3)Cc3cncn32)cc1` (stereo not drawn) the melting point was 156 to 158 °C. `CN1CCN2c3ccc(Cl)cc3C(c3ccco3)=[N+]([O-])CC2C1` (stereo not drawn) gave a melting point of 202 to 204 °C. In the case of `CCCCOc1ccc(CCCOc2c(CC(=O)O)cccc2OC)c(Oc2ccc(C(F)(F)F)cn2)c1`, the melting point is reported as 69 to 70 °C. For `CC(=O)Oc1ccc(CC(CC(=O)O)N2C(=O)c3ccccc3C2=O)cc1` (stereo not drawn), the melting point was 151 to 154 °C. For `CNC(=S)N(Cc1ccc(Cl)nc1)CC(F)(F)F`, the melting point was 98 to 100 °C. For `CCC(CO)(CO)Nc1ncc2cc(Oc3ccc(F)cc3F)ccc2n1`, the melting point was 110 to 113 °C. `O=c1cc(CO)n2c(n1)COc1ccccc1-2` gave a melting point of 235 to 237 °C. For `C=C(C)C(=O)Nc1nc(CCC)n(Cc2ccc(-c3ccccc3-c3nnn[nH]3)cc2)c1C(=O)OCC`, the melting point was 134 to 136 °C. `CCCCCCC(=O)COS(=O)(=O)c1ccc(OCC)cc1` gave a melting point of 38 to 39 °C. With `CCc1nc2c(OCc3ccccc3)cc(C(=O)N(C)C)cc2n1C` the melting point was 104 to 108 °C. With `O=C(NC(=O)C(c1ccccc1)c1ccccc1)C1CC1` the melting point was 178 °C. Compound `CNCCOc1ccc(C=CC(=O)N2CCc3c([nH]c4ccccc34)C2c2ccc3c(c2)CCO3)cc1` (stereo not drawn) has a melting point of 145 °C. In the case of `N#Cc1cc2c(Oc3ccc(Cl)cc3)cncc2s1`, the melting point is reported as 140 to 142 °C. For `COc1ccc(-c2cc(-c3ccc(-c4c(Cc5ccccc5)sc5ccccc45)cc3)cc(Br)c2OCC(=O)O)cc1OC`, the melting point was 103 to 105 °C. For `CNC(=NC#N)NCCSCc1ccc(CN(C)C)o1`, the melting point was 79 to 81.5 °C. In the case of `CN(C)S(=O)(=O)c1ccc(Br)cc1`, the melting point is reported as 90 to 92 °C. In the case of `Cc1cc(-c2ccc(Cl)cc2)cn2c(-c3nc(-c4ccc(S(N)(=O)=O)s4)no3)cnc12`, the melting point is reported as 271 °C. `COC(=O)[C@H](CN1CCC(=C2c3ccccc3C=Cc3ccccc32)CC1)NC(=O)OCc1ccccc1` showed a melting point of 116 to 119 °C. Work on `COc1ncc(-c2cc(C=CC(=O)c3ccc(C(=O)O)cc3)c(OC)cc2OC)c(OC)n1` yielded a melting point of 203 to 205 °C. Work on `COC(=O)c1cc2c3cc(Br)ccc3n(Cc3ccccc3)c2s1` yielded a melting point of 134 to 135 °C. With `Cn1c(CN2CCOCC2)nc([N+](=O)[O-])c1C#N` the melting point was 112 to 115 °C. Compound `CCCCCC(=O)c1ccc(O)c(C(=O)O)c1` has a melting point of 48 to 49 °C. In the case of `CON(Cc1cccc(-c2ccc(Cl)cc2)c1)C(=O)c1cn(C)nc1C(F)F`, the melting point is reported as 78 to 80 °C. Work on `O=[N+]([O-])c1cc(I)ccc1Nc1cccc(-n2cccn2)c1` yielded a melting point of 165 to 166 °C. With `CN1CC(C(=O)CN2CCOCC2)CC2c3cccc4c3c(cn4C)CC21` (stereo not drawn) the melting point was 198 to 200 °C. Compound `CCC(=CC(CNC(=O)c1cccnc1Cl)=NO)C(C)[N+](=O)[O-]` (stereo not drawn) has a melting point of 131 to 136 °C. `CSCCOc1cc(N)c(Cl)cc1C(=O)O` gave a melting point of 138 to 140 °C. For `CCOC(=O)C(=CNc1c[nH]nn1)C(=O)c1cc(F)c(F)cc1F`, the melting point was 157 to 159 °C. Compound `CC(=O)Nc1cccc(-c2ccnc3c(C(=O)c4cccs4)cnn23)c1` has a melting point of 245 to 247 °C. With `Cn1cc(CS(C)(=O)=O)c(=O)c2sccc21` the melting point was 220 to 223 °C. `CCCCN1C(=O)NC(Cc2ccc(C)s2)C1=O` (stereo not drawn) showed a melting point of 107 °C. In the case of `COc1ccc2oc(N)c(C(N)=O)c(=O)c2c1`, the melting point is reported as 270 °C. For `COc1cccc(C2(Cl)C(C)(C)C2(C)C)c1OC`, the melting point was 123 to 125 °C. In the case of `CCOP(=O)(Cc1ccc(-c2ccccc2)cc1)OCC`, the melting point is reported as 55 to 58 °C. In the case of `CCCCOCc1cc(-n2nc(C(N)=O)nc2-c2ccccc2)ccc1Cl`, the melting point is reported as 96 to 98 °C. For `CC(=O)OCCn1nc(-c2cc(C(C)(C)C)cc(C(C)(C)C)c2)c2cccnc21`, the melting point was 115 to 116 °C. Work on `COc1ccc(C(=O)c2c(C)n3c4c(cccc24)OCC3CN2CCOCC2)cc1` (stereo not drawn) yielded a melting point of 182 to 189 °C. With `Cc1cc2c(s1)Nc1ccccc1N=C2N1CCN(C)[C@@H](COc2ccccc2)C1` the melting point was 74 to 88 °C. For `Cc1cc(Br)cnc1CCCCNc1nccc(=O)[nH]1`, the melting point was 109 to 113 °C. In the case of `CCCCCCCCCCN(C[C@H]1CC[C@H](CN(CCCCCCCCCC)C(=O)Nc2ccc(N(C)C)cc2)CC1)C(=O)Nc1ccc(N(C)C)cc1`, the melting point is reported as 125 to 127 °C. `N#Cc1c(OCC(F)(F)F)nc(C2CC2)nc1N1CCc2ccccc2CC1` gave a melting point of 116 to 118 °C. `O=C(Nc1ccc(Oc2ccnc(NCC3CCCO3)n2)c2ccccc12)c1cc(F)cc(N2CCOCC2)c1` (stereo not drawn) showed a melting point of 103 to 105 °C. Work on `CCOC(=O)N1C(=O)C2(COc3cc4c(cc32)OCCO4)c2ccccc21` (stereo not drawn) yielded a melting point of 198 to 200 °C. `CCCc1nc2c(N)nc3ccccc3c2n1CC1(O)CCOCC1` showed a melting point of 231 to 233 °C. With `O=[N+]([O-])c1ccc(Br)c2nsnc12` the melting point was 216 to 218 °C. In the case of `CSc1coc2cc(NS(C)(=O)=O)c(Oc3ccccc3)cc2c1=O`, the melting point is reported as 175 to 176 °C. For `O=C(Nc1ccc(Oc2ccnc(NC3CCCCC3)n2)c2ccccc12)c1cc(F)cc(N2CCOCC2)c1`, the melting point was 135 to 136 °C. For `C[C@H]1[C@H](O)[C@H](O)C(S(=O)(=O)c2ccccc2)=C[C@H](C)[C@H]1O[Si](C)(C)C(C)(C)C`, the melting point was 117 to 119 °C. `CC1=CCc2cccc(OCC3CN(C(C)C)CCO3)c21` (stereo not drawn) showed a melting point of 114 to 116 °C. `N[C@H]1CCCC[C@H]1CCC(O)(P(=O)(O)O)P(=O)(O)O` (relative stereo) showed a melting point of 131 to 133 °C. In the case of `CCC(CC)n1nnc2c(Nc3c(C)cc(C)cc3C)nc(C)cc21`, the melting point is reported as 140 to 142 °C. Compound `O=C1CCN(C(=O)c2cc(C(F)(F)F)cc(C(F)(F)F)c2)CC1` has a melting point of 155 to 157 °C. In the case of `CCOCCOCCn1c(C=O)cc2c1CC(c1ccccc1Cl)C1C(=O)NC(=O)C21` (stereo not drawn), the melting point is reported as 190 to 193 °C. In the case of `O=C1CCC(c2cc3c(s2)CC(NS(=O)(=O)c2ccccc2)CC3)=NN1` (stereo not drawn), the melting point is reported as 230 to 232 °C. `CN(C(=O)c1ccccc1N(CC(=O)N1CCCC(C)(C)C1)C(=O)CN1C(=O)c2ccccc2C1=O)c1ccccc1` gave a melting point of 180 °C. Work on `CC(C)(Oc1ccc(CC(=O)Nc2ccc(F)cc2)cc1)C(=O)O` yielded a melting point of 198 °C. `CC1(c2ccc(O)c([N+](=O)[O-])c2)C(=O)Nc2cc(Cl)cc(Cl)c2C1=O` (stereo not drawn) gave a melting point of 239 to 240 °C. In the case of `Cc1[nH]cnc1CSCCNc1[nH]cc(-c2ccccc2)c1[N+](=O)[O-]`, the melting point is reported as 182 to 184 °C. Work on `OCCC1Cc2ccccc2CN1C(=S)Nc1cccnc1` (racemic) yielded a melting point of 174 °C. In the case of `CC(C)=CCC(C)(C)C(=O)/C=C/[C@@H]1[C@H]2CC(=O)O[C@H]2C[C@H]1OC(=O)c1ccccc1`, the melting point is reported as 98 °C. In the case of `CCCC(=O)Nc1ncc(C(C)C)s1`, the melting point is reported as 95 to 97 °C. In the case of `Cc1ccc(-c2ccc3nnn(Cc4ccc5ncccc5c4)c3n2)s1`, the melting point is reported as 154 to 156 °C. `COc1cc2c(cc1OC)CN(CCc1ccc(NC(=O)c3cccc4c(=O)c5cccc(OC)c5[nH]c34)c(C)c1)CC2` gave a melting point of 200 to 201 °C. Work on `CC1CC(=O)NN=C1c1ccc(N2CCC(C(=O)O)CC2)c([N+](=O)[O-])c1` (stereo not drawn) yielded a melting point of 214 °C. Compound `CCOC(=O)C1Oc2cc(C(=O)c3ccnn3C)c(Cl)c(Cl)c2O1` (stereo not drawn) has a melting point of 124 to 126 °C. For `CC(C)(C)c1cc(C2N(c3ccc(Cl)cc3)CCN2c2ccc(Cl)cc2)cc(C(C)(C)C)c1O`, the melting point was 220 to 222 °C. For `CCC(=NOc1ccc(Cl)cc1)c1cc(Cl)ccc1NS(=O)(=O)C(F)(F)F`, the melting point was 87 to 88 °C. In the case of `O=C(O)CN1C(=O)C2(COc3cc4c(cc32)OCCO4)c2ccccc21` (stereo not drawn), the melting point is reported as 193 to 196 °C. `O=Cc1ccc(-c2ccc(-c3cn([C@H]4CN5CCC4CC5)nn3)cc2)s1` gave a melting point of 228 °C. In the case of `COc1ccc2ccc(OC)c3c2c1CCC3CCNC(=O)C1CC1` (stereo not drawn), the melting point is reported as 120 °C. Compound `CC(=O)OCC(=O)Nc1cccc(NC(=O)COC(C)=O)c1C#N` has a melting point of 151 to 153 °C. Compound `CCC(=O)OC(C#N)C(C#N)c1ccc(OC)c(OC)c1` (stereo not drawn) has a melting point of 92 to 94 °C. `O=S(=O)(NCC(O)(Cn1cncn1)c1ccc(F)cc1F)c1ccc(F)cc1` (stereo not drawn) gave a melting point of 140 to 146 °C. With `C=CCC(N)c1cccc(OC)c1` (stereo not drawn) the melting point was 30 °C. In the case of `Cc1oc(-c2ccco2)nc1COc1ccc(CO)cc1`, the melting point is reported as 91 to 92 °C. With `COc1cccc2c1C(=O)C(=O)N2` the melting point was 198 to 200 °C. In the case of `O=C(CCc1ccc(I)cc1)Cn1ccnc1`, the melting point is reported as 124 to 125 °C. Compound `OCc1cnc2sc3c(n12)CCCCC3` has a melting point of 145 to 146 °C. For `O=c1[nH]c2ccccc2c(=O)n1CCN1CCC(c2noc3cc(F)ccc23)CC1`, the melting point was 253 °C. In the case of `CCOC(=O)C(=C(c1ccc(F)cc1)c1ccc(F)cc1)c1nnn(C)n1`, the melting point is reported as 117 to 118 °C. Compound `O=c1cc2c(n[nH]1)CCc1cc(O)ccc1-2` has a melting point greater than 300 °C. With `COc1ccc2cc(C(C)=CC(=O)O)cc(F)c2c1` the melting point was 214 to 217 °C. `Cc1nc2ccc3c(c2o1)OC(CN1C2CCC1CC(O)(c1cccc(C(F)(F)F)c1)C2)CO3` (stereo not drawn) showed a melting point of 148 to 150 °C.
